The values below come from patent publication US20210087172A1, “FACTOR XIIa INHIBITORS” (UNIVESITY OF LEEDS, priority 2018, published 2021).

Format in all cases: biochemical
Assay [1] concerns the target T1, FXIIa alpha (Human) (Homo sapiens, UniProt P00748).
T1 construct: FXIIa alpha
T1 sequence (P00748 373-615 limits assumed): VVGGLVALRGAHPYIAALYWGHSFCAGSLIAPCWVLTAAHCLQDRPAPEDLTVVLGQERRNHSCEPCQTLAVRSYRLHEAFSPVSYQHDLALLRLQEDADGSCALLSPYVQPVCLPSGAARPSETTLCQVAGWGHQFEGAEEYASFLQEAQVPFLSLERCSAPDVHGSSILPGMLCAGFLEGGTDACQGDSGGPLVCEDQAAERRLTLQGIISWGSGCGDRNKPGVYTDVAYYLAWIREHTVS
T1 sequence (P00748 20-372 partner limits assumed): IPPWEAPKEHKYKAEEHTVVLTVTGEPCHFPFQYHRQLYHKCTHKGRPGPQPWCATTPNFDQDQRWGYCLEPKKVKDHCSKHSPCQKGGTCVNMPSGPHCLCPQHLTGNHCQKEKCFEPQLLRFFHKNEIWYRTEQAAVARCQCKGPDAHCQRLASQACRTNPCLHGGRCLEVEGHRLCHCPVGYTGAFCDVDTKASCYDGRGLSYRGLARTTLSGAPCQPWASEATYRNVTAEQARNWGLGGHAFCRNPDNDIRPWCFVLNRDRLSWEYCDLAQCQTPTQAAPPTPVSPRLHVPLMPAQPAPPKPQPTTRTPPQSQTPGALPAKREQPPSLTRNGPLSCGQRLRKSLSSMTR
As to the kind of experiment: Determination of Factor XIIa inhibition, chromogenic substrate S-2302. As to conditions: 10 nM FXIIa, 450 μM S-2302, 37° C., pH 7.4; Ki converted from IC50. The method, then:
(§1) The activities of the compounds of the invention have been determined in vitro using the following assays protocols for the screening of activity of FXIa and other proteases. Each of these assays were performed in a purified system employing the use of chromogenic assays in microplate plate wells. Chromogenic peptide substrates mimicking natural protein substrates are attached via an amide bond to a chromogenic group. Paranitroaniline (pNA) is released from the peptide following catalyses by the proteolytic enzyme; the absorbance increases and can be monitored at 405 nm.
(§2) All compounds were dissolved in 100% (v/v) DMSO to a stock concentration of 10 mM, the highest concentration of compound used in each assay is 500 μM. The final concentrations of DMSO were 5% (v/v) in 50 mM Tris 137 mM NaCl pH 7.4. Where no test compound was added a final concentration of 5% DMSO was employed.
[…] activity was measured using a chromogenic substrate S-2302 (Chromogenix). Various concentrations of compound were incubated with 10 nM of FXIIa and incubated at 37° C. for 10 minutes in 50 mM Tris, 137 mM NaCl, pH 7.4, prior to the addition of a final concentration of 450 μM S-2302 chromogenic substrate. Kinetic readings at 405 nm were monitored every 12 secs for a total duration of 3 hours at 37° C. Gradients of initial rates were determined and employed to calculate IC50 values. Values of IC50 were converted to Ki values based on the formula:
(§3) Ki=IC50/(1+[Substrate]/Km)
The activity of the compounds of the invention has been categorised based on the Ki values, the categories being “*”, “**” and “***”. […] The category refers to compounds with a Ki value of 0.2 μM to 2 μM.

Assay [2] concerns the target T2, Thrombin (human) (Homo sapiens, UniProt P00734).
T2 construct: FXa (5 nM) and thrombin (5 nM)
As to the kind of experiment: Determination of selectivity: thrombin chromogenic assay (GPR substrate). As to conditions: fold selectivity for FXIIa over thrombin; thrombin 5 nM, GPR 250 μM. The method, then: as §1, §2
(§4) To determine selectivity of test compounds, these test compounds were assayed for inhibitory activity against other serine proteases including FXa and thrombin. Essentially compounds at increasing concentrations were incubated with each enzyme: FXa (5 nM) and thrombin (5 nM), for 10 mins at 37° C. followed the appropriate chromogenic substrate, S2765 (350 μM), and GPR (250 μM) respectively in 50 mM Tris, 137 mM NaCl, pH 7.4. Chromogenic substrates S2765 was from Chromogenix, and GPR from Bachem. Kinetic readings at 405 nm were monitored every 12 secs for a total duration of 3 hours at 37° C. Gradients of initial rates were determined and employed to calculate IC50 values. Values of IC50 were converted to Ki values based on the formula:
as §3
(§5) Where [Substrate] denotes the concentration of substrate used in the assay and Km is the determined value of each enzyme with its own substrate.
The fold selectivity for FXIIa over thrombin for the compounds of the invention has been categorised based on the fold selectivity values, the categories being “+”, “++” and “+++”. The category “+” refers to fold selectivity values less than 10. The category “++” refers to a fold selectivity value of 10 to 100. The category “+++” refers to fold selectivity values greater than 100.

Assay [3] has as its target FXa (human) (Homo sapiens, UniProt P00742). As to the kind of experiment: Determination of selectivity: FXa chromogenic assay (S2765 substrate). As to conditions: fold selectivity for FXIIa over FXa; FXa 5 nM, S2765 350 μM. The method, then:
as §1, §2, §4, §3, §5
The fold selectivity for FXIIa over FXa for the compounds of the invention has been categorised based on the fold selectivity values, the categories being “o”, “oo” and “ooo”. The category “o” refers to fold selectivity values less than 10. The category “oo” refers to a fold selectivity value of 10 to 100. The category “ooo” refers to fold selectivity values greater than 100.

Sequence of FXa (human) (P00742 235-488 limits assumed): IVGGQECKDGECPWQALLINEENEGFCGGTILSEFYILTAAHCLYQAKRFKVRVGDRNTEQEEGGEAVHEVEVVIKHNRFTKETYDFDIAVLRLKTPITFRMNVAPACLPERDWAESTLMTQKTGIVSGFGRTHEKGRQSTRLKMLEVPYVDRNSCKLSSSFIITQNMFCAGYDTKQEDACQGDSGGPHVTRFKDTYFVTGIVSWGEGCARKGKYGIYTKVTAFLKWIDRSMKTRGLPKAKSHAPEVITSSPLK
Sequence of FXa (human) (P00742 41-179 partner limits assumed): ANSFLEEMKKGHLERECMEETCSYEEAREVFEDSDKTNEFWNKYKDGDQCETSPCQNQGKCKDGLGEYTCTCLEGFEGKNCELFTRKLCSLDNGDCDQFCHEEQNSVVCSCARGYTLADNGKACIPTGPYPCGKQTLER

The term Ki denotes the equilibrium dissociation constant of an inhibitor or competing ligand from its target. In assay [1], `N=C(N)c1ccc(CNC(=O)C2CCCCN2C(=O)C(CCc2ccccc2)NS(=O)(=O)Cc2ccccc2)cc1` (stereo not shown) [Compound M00556] had an inhibition constant (Ki) of 200 to 2000 nM. Moreover, the “Thrombin (human)/FXIIa alpha (human) fold selectivity” value (from here on “Thrombin … (human) fold selectivity”) in assay [2] is reported as “+ (fold selectivity values less than 10)”. For the same compound, in assay [3], the “FXa (human)/FXIIa alpha (human) fold selectivity” value (“FXa … (human) fold selectivity” below) is “o (fold selectivity values less than 10)”. The matching figures for `Nc1cc(CNC(=O)[C@@H]2CN(C(=O)OCc3ccccc3)CCN2C(=O)[C@H](N)CCc2ccccc2)ccn1` [Compound M00832]: over 2000 nM, “++ (a fold selectivity value of 10 to 100)” and “oo (a fold selectivity value of 10 to 100)”. Taken in the same sequence, the figures for `CN(C)[C@H](CCc1ccccc1)C(=O)N1CCN(C(=O)OCc2ccccc2)C[C@H]1C(=O)NCc1ccnc(N)c1` [Compound M00833] were over 2000 nM, “++ (a fold selectivity value of 10 to 100)” and “oo (a fold selectivity value of 10 to 100)”. `COc1cc(CNC(=O)[C@@H]2CN(C(=O)OCc3ccccc3)CCN2C(=O)[C@H](N)CCc2ccccc2)ccc1CN` [Compound M00834] showed an inhibitory constant (Ki) in assay [1] of under 200 nM. Besides, in assay [2], the “Thrombin … (human) fold selectivity” value is given as “+++ (fold selectivity values greater than 100)”. In addition, the “FXa … (human) fold selectivity” value in assay [3] was “ooo (fold selectivity values greater than 100)”. Compound `NCc1ccc(CNC(=O)C2CN(c3ccccc3)CCN2C(=O)C(N)CCc2ccccc2)cc1` (stereo not shown) [Compound M00836] showed a Ki in assay [1] of over 2000 nM. Compound `CS(=O)(=O)N1CCN(C(=O)[C@H](N)CCc2ccccc2)[C@H](C(=O)NCc2ccc(CN)cc2)C1` [Compound M00838, (2S)-1-[(2R)-2-amino-4-phenylbutanoyl]-N-{[4-(aminomethyl)phenyl]methyl}-4-methanesulfonylpiperazine-2-carboxamide] showed a Ki in assay [1] of over 2000 nM. The “Thrombin … (human) fold selectivity” value in assay [2] is “+ (fold selectivity values less than 10)”. The “FXa … (human) fold selectivity” value in assay [3] was “o (fold selectivity values less than 10)”. As to `NCc1ccc(CNC(=O)C2CN(C(=O)CCc3ccccc3)CCN2C(=O)C(N)CCc2ccccc2)cc1` (stereo not shown) [Compound M00840], the Ki in assay [1] is over 2000 nM. Turning to `NCc1ccc(CNC(=O)C2CN(S(=O)(=O)CCc3ccccc3)CCN2C(=O)C(N)CCc2ccccc2)cc1` (stereo not shown) [Compound M00842], the Ki in assay [1] was over 2000 nM.

In turn, `NCc1ccc(CNC(=O)C2CN(C(=O)Cc3ccccc3)CCN2C(=O)C(N)CCc2ccccc2)cc1` (stereo not shown) [Compound M00843] registered an inhibitory constant (Ki) in assay [1] of over 2000 nM. Further, in assay [2], the “Thrombin … (human) fold selectivity” value is given as “+++ (fold selectivity values greater than 100)”. Besides, the “FXa … (human) fold selectivity” value in assay [3] is reported as “oo (a fold selectivity value of 10 to 100)”. `NCc1ccc(CNC(=O)C2CN(C(=O)c3ccccc3)CCN2C(=O)C(N)CCc2ccccc2)cc1` (stereo not shown) [Compound M00844] gave a Ki in assay [1] of over 2000 nM. Same read-out and setting: to `NCc1ccc(CNC(=O)C2CN(C(=O)NCc3ccccc3)CCN2C(=O)C(N)CCc2ccccc2)cc1` (stereo not shown) [Compound M00847] belongs over 2000 nM; to `CN(C)C(=O)N1CCN(C(=O)C(N)CCc2ccccc2)C(C(=O)NCc2ccc(CN)cc2)C1` (stereo not shown) [Compound M00848], over 2000 nM.

Take `CC(=O)N1CCN(C(=O)C(N)CCc2ccccc2)C(C(=O)NCc2ccc(CN)cc2)C1` (stereo not shown) [Compound M00850]: the Ki in assay [1] is over 2000 nM. In assay [1], `Cc1cc(CNC(=O)[C@@H]2CN(C(=O)OCc3ccccc3)CCN2C(=O)[C@H](N)CCc2ccccc2)cc(N)n1` [Compound M00858] came in with a Ki of over 2000 nM. The “Thrombin … (human) fold selectivity” value in assay [2] is on record as “++ (a fold selectivity value of 10 to 100)”. Further, the “FXa … (human) fold selectivity” value in assay [3] was “oo (a fold selectivity value of 10 to 100)”. Regarding `CC(C(=O)N1CCN(C(=O)C(N)CCc2ccccc2)C(C(=O)NCc2ccc(CN)cc2)C1)c1ccccc1` (stereo not shown) [Compound M00859], the Ki in assay [1] was over 2000 nM.

`NCc1ccc(CNC(=O)C2CNCCN2C(=O)C(N)CCc2ccccc2)cc1` (stereo not shown) [Compound M00862]: in assay [1], the Ki is over 2000 nM. In turn, `Cn1nnc2cc(CNC(=O)[C@@H]3CN(C(=O)Oc4ccccc4)CCN3C(=O)[C@H](N)CCc3ccccc3)ccc21` [Compound M00871] had a Ki in assay [1] of over 2000 nM. For the same compound, the “Thrombin … (human) fold selectivity” value in assay [2] was “++ (a fold selectivity value of 10 to 100)”. Further, the “FXa … (human) fold selectivity” value in assay [3] is listed as “oo (a fold selectivity value of 10 to 100)”.

The compound `C#CCOC(=O)N1CCN(C(=O)C(N)CCc2ccccc2)C(C(=O)NCc2ccc3c(c2)nnn3C)C1` (stereo not shown) [Compound M00880] registered an inhibition constant (Ki) in assay [1] of over 2000 nM.

In turn, `Cn1ccnc1COC(=O)N1CCN(C(=O)C(N)CCc2ccccc2)C(C(=O)NCc2ccc3c(c2)nnn3C)C1` (stereo not shown) [Compound M00883] returned an inhibition constant (Ki) in assay [1] of over 2000 nM.

In assay [1], `Cn1nnc2cc(CNC(=O)C3CN(c4ncccn4)CCN3C(=O)C(N)CCc3ccccc3)ccc21` (stereo not shown) [Compound M00891] came in with a Ki of over 2000 nM. Regarding `Cn1nnc2cc(CNC(=O)[C@@H]3CN(c4ccc5ncccc5c4)CCN3C(=O)[C@H](N)CCc3ccccc3)ccc21` [Compound M00940, (2S)-1-[(2R)-2-amino-4-phenylbutanoyl]-N-[(1-methyl-1H-1,2,3-benzotriazol-5-yl)methyl]-4-(quinolin-6-yl)piperazine-2-carboxamide], the Ki in assay [1] was over 2000 nM.

For `Cn1nnc2cc(CNC(=O)C3CN(C(=O)OCc4ccc(Cl)cc4)CCN3C(=O)C(N)CCc3ccccc3)ccc21` (stereo not shown) [Compound M00942], the Ki in assay [1] was over 2000 nM. `NCc1ccc(CNC(=O)C2CC(O)CCN2C(=O)C(N)CCc2ccccc2)cc1` (stereo not shown) [Compound M05071]: the Ki in assay [1] is over 2000 nM.

Take `NC(CCC(=O)N1CCCC1)C(=O)N1CCN(C(=O)OCc2ccccc2)CC1C(=O)NCc1ccnc(O)c1` (stereo not shown) [Compound M05263]: the inhibition constant Ki in assay [1] was over 2000 nM. In the case of `Cn1nnc2cc(CNC(=O)C3CN(C(=O)OCc4ccccc4)CCN3C(=O)C(N)C3Cc4ccccc4C3)ccc21` (stereo not shown) [Compound M05273], in assay [1], the Ki was over 2000 nM. In turn, `NC(CCC(=O)N1CCCC1)C(=O)N1CCN(C(=O)OCc2ccccc2)CC1C(=O)NCc1ccc2cnccc2c1` (stereo not shown) [Compound M05275] returned a Ki in assay [1] of over 2000 nM. On to `NC(CCC(=O)N1CCCC1)C(=O)N1CCN(C(=O)OCc2ccccc2)CC1C(=O)NCc1ccc2cnc(O)cc2c1` (stereo not shown) [Compound M05277], for which, in assay [1], the Ki is over 2000 nM. Further, in assay [2], the “Thrombin … (human) fold selectivity” value is “++ (a fold selectivity value of 10 to 100)”. In the case of `Cn1nnc2cc(CNC(=O)C3CN(C(=O)OCc4ccccc4)CCN3C(=O)C(N)c3cc4ccccc4o3)ccc21` (stereo not shown) [Compound M05286], in assay [1], the inhibition constant Ki was over 2000 nM. In assay [1], `Cc1cc2cc(CNC(=O)C3CN(C(=O)OCc4ccccc4)CCN3C(=O)C(N)CCC(=O)N3CCCC3)ccc2cn1` (stereo not shown) [Compound M05292] displayed an inhibition constant (Ki) of over 2000 nM.
